The numbers were not newly measured in US20210353574A1, “Softgels with solid or gel-like polymeric fill matrix” (Bayer HealthCare LLC, priority 2018, published 2021), which cites them from elsewhere.

For this data set the following is noted: used as an analgesic.

Consider `COc1ccc2cc([C@H](C)C(=O)O)ccc2c1` [Naproxen], for which the minimum effective dose is on record as 200 mg.
Consider `COc1ccc2cc([C@H](C)C(=O)O)ccc2c1` [naproxen sodium], for which the minimum effective dose is on record as 220 mg.
